Measurements published in patent US20200377477A1, “DEGRADERS OF EGFR AND METHODS OF USE THEREOF” (DANA-FARBER CANCER INSTITUTE, INC., priority 2018, published 2020).
Where two headings read alike, the source gives them in different places.

Tests used:
[1] = target: T1, EGFR T790M/L858R Ba/F3 cell line (Homo sapiens, UniProt P00533, T790M/L858R, cells depend on it); assay: Ba/F3 cell proliferation (MTS assay), EGFR T790M/L858R; type: cell-based, murine
T1 construct: The constructs were shuttled into the retroviral vector JP1540 using the BD Creator™ System (BD Biosciences)
T1 sequence (P00533 whole entry T790M/L858R): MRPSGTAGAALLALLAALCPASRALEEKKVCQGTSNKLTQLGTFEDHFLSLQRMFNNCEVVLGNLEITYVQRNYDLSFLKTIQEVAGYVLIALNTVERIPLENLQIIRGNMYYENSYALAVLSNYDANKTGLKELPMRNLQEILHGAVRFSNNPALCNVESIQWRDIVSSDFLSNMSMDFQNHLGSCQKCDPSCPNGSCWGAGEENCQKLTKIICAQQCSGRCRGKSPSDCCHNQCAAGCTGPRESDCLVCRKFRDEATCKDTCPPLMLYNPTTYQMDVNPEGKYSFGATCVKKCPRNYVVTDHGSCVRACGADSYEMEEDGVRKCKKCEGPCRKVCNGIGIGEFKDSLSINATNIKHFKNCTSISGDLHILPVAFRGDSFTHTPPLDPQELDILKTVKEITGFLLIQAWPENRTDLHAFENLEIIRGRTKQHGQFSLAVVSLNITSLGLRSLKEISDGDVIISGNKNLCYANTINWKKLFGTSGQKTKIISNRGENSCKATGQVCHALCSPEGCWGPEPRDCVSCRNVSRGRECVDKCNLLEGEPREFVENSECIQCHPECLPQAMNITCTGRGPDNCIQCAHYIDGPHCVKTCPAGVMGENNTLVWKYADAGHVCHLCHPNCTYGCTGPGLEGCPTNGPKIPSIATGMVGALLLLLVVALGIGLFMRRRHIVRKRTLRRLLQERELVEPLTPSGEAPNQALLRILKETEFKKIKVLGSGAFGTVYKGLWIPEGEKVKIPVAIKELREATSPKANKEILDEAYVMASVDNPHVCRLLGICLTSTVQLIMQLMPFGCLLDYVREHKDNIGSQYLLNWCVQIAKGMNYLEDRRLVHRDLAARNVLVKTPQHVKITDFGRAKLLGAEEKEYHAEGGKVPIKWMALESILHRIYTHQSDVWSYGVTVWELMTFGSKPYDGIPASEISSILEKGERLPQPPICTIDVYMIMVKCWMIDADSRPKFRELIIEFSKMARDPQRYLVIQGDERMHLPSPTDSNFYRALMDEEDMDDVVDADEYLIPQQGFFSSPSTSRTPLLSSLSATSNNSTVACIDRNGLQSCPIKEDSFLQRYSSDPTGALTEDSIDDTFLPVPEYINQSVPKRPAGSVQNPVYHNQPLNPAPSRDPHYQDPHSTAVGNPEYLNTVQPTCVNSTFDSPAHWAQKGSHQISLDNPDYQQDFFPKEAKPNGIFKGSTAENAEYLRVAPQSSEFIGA
Protocol: The EGFR mutant L858R, Del E746_A750, L858R/T790M, DelE746_A750/T790M, L858R/T790M/C797S and Del/T790M/C797S Ba/F3 cells were previously described (Zhou e al., Nature 462, (2009), 1070-1074). All cell lines were maintained in RPMI 1640 (Cellgro; Mediatech Inc., Hemdon, Calif.) supplemented with 10% FBS 100 units/mL penicillin, 100 units/mL streptomycin, and 2 mM glutamine. L858R cells were maintained in ACL-4 media (Invitrogen, Carlsbad, Calif.) supplemented with 5% FBS, 100 units/mL penicillin, 100 units/mL streptonycin, and 2 mM glutamine. The EGFR I941R mutation was introduced via site directed mutagenesis using the Quick Change Site-Directed Mutagenesis kit (Stratagene; La Jolla, Calif.) according to the manufacturer's instructions. All constructs were confirmed by DNA sequencing. The constructs were shuttled into the retroviral vector JP1540 using the BD Creator™ System (BD Biosciences). Ba/F3 cells were infected with retrovirus and according to standard protocols, as described previously (Zhou 2009). Stable clones were obtained by selection in puromycin (2 μg/ml).
Growth and inhibition of growth was assessed by MTS assay and was performed according to previously established methods (Zhou 2009). The MTS assay is a colorimetric method for determining the number of viable cells that is based on the bioreduction of MTS by cells to a formazan product that is soluble in cell culture medium and can be detected spectrophotometrically. […] All experimental points were set up in six wells and all experiments were repeated at least three times. […] The curves were fitted using a non-linear regression model with a sigmoidal dose response.

[2] = target: T2, recombinant EGFR T790M/L858R kinase (Homo sapiens, UniProt P00533, L858R/T790M); assay: HTRF-based EGFR biochemical assay
T2 construct: Constructs spanning residues 696-1022 of the human EGFR; GST (cleaved yes); made in house; host or cells: Sf9 insect cells
T2 sequence (P00533 696-1022 T790M/L858R): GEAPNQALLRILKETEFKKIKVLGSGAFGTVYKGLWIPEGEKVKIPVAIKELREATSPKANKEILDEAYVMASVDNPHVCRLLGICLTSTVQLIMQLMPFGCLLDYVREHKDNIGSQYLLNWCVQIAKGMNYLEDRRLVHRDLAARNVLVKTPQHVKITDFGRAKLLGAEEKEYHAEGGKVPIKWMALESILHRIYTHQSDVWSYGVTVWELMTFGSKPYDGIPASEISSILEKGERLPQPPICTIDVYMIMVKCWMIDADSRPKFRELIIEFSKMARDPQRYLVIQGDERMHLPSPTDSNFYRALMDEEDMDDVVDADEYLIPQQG
Protocol: Constructs spanning residues 696-1022 of the human EGFR (including wild type and L858R, L858R/T790M, T790M, and T790M/V948R mutant sequences) were prepared in a GST-fusion format using the pTriEX system (Novagen) for expression in Sf9 insect cells essentially as described (Yun et al., PNAS 105, 2070-2075 (2008); Yun et al., Cancer Cell 11, 217-227 (2007)). EGFR kinase proteins were purified by glutathione-affinity chromatography followed by size-exclusion chromatography after cleavage with TEV or thrombin to remove the GST fusion partner following established procedures. (Yun 2008; Yun 2007).
EGFR biochemical assays were carried out using a homogeneous time-resolved fluorescence (HTRF) assay as described previously. The reaction mixtures contained 1 μM biotin-Lck-peptide substrate, wild type or mutant EGFR enzyme in reaction buffer (50 mM HEPES pH 7. 1, 10 mM MgCl2, 0.01% BSA, 1 mM TCEP and 0.1 mM Na3VO4) at a final volume of 10 μL. Enzyme concentrations were adjusted to accommodate varying kinase activity and ATP concentrations (0.2-0.4 nM L858R/T790M; or 2-4 nM L858R, or 2-4 nM T790M, or nM WT). All reactions were carried out at room temperature in white ProxiPlate™ 384-well Plus plates (PerkinElmer) and were quenched with 5 μL of 0.2 M EDTA at 60 min. Five μL per well of the detection reagent containing 2.5 ng PT66K (Cis-bio) and 0.05 μg SAXL (Prozyme) were added, and the plates were then incubated at room temperature for 1 hour and read with an EnVision plate reader.

[3] = absence of cetuximab, read-out: Ba/F3 cellular activity (EC50) T790M/L858R
[4] = read-out: Ba/F3 cellular activity (EC50) T790M/L858R + Cetuximab, presence of 1 μg/mL cetuximab

EC50 [1, 3] [nM] | EC50 [1, 4] [nM] | IC50 [2] [nM] | Structure (SMILES)
< 250 | < 250 | ≥ 750 | O=C(CCl)Nc1ccc2c(c1)N(Cc1ccccc1)C(=O)c1cc(-c3ccc4[nH]ccc4c3)ccc1N2 [I-2]
≥ 750 | 500 to 750 | ≥ 750 | C=CC(=O)Nc1ccc2c(c1)N(Cc1ccccc1)C(=O)c1cc(-c3ccc4[nH]ccc4c3)ccc1N2 [I-1]
≥ 750 | 250 to 500 | – | O=C1c2cc(Br)ccc2Nc2ccc(F)cc2N1Cc1ccccc1 [I-a, 10-Benzyl-2-bromo-8-fluoro-5,10-dihydro-11H-dibenzo[b,e][1,4]diazepin-11-one]
≥ 750 | ≥ 750 | ≥ 750 | C=CC(=O)Nc1ccc2c(c1)N(Cc1ccccc1)C(=O)c1cc(-c3ccc(N4CCNCC4)cc3)ccc1N2 [I-3, N-(10-Benzyl-11-oxo-2-(4-(piperazin-1-yl)phenyl)-10,11-dihydro-5H-dibenzo[b,e][1,4]diazepin-8-yl)acrylamide]
